# Measured values reported in US20140329912A1, “CONTRACEPTIVE COMPOSITIONS AND METHODS OF CONTRACEPTION” (INTEGRITY PHARMACEUTICALS, LLC, priority 2011, published 2014).
# Test system: Sperms
# Assay: Toxicity screening: cell viability by MTS assay
# Format: cell-based, mice
# Conditions: for Average absorbance of cell-reduced MTS at 490 nm: average of trials 1-3; for Corrected average absorbance of cell-reduced MTS at 490 nm: culture media background subtracted
# Experimental: Male BALB/c mice (12-16 week old) were euthanized by CO2-inhalation. The cauda epididymes was clipped and the upper portions of the vas deferens freed from surrounding tissue. Three-four cuts were made using scissors and forceps across the epididymes and several cuts along the length of the vas deferens. Sperm were allowed to swim out of the tissue. The dish was placed in a 5% CO2 incubator set at 37° C. for 10-15 minutes. The solution of sperm was diluted (50 μl sperm+450 μl complete medium) in Whittens/HCO3/BSA. Sperm was removed from the very top or sides of sperm drop to obtain the sperm with highest motility. The dish was then returned to the 5% CO2 incubator set at 37° C. to allow the sperm to capacitate for 1-3 hrs prior to use.
# In addition, cell viability with n-propyl bromide was measured by MTS assay (Promega, Madison, Wis.). MTS [3-(4,5-dimethylthiazol-2-yl)-5-(3-carboxymethoxyphenyl)-2-(4-sulfophenyl)-2H-tetrazolium, inner salt] was utilized according to the manufacturer's instructions. The culture growth medium consisted of Whittens-HEPES complete media, (pH 7.2-7.4) prepared and supplemented with 30 mM NaHCO3 and 10 mg/mL BSA (Bovine Serum Albumin, Sigma A0281, fatty acid free). 250 mL of Whittens-Hepes complete media includes 1461 mg of NaCl, 87.6 mg of KCl, 40.8 mg of KH2PO4, 36.1 mg of MgSO4, 247.8 mg of glucose (dextrose), 22.01 mg of pyruvic acid, 130.92 mg of lactic acid (hemi-Ca), and 1191.5 mg of HEPES. After treatments of the sperms, 30 μL of MTS solution was added to each well and pipetted up and down for ten times to ensure properly mixing and incubation was prolonged for 2 h at 37° C., 5% CO2.
# Absorbance observations for trials 1-3 and calculated average are expressed as optical density. The absorbance of cell-reduced MTS was read at 490 nm on a spectrophotometer Spectra Max Plus 384, and optical density for absorbance readings is provided in Table II. Absorbance is directly proportional to the number of living cells in culture. Thus, a reduction in absorbance normalized to a control indicates toxicity to a cell. Background absorbance was measured for the culture media only in three trials. An average absorbance was calculated from the three trials. The average optical density for the three trials for the culture media (background) was then subtracted from the average optical density of the various concentration assays for n-propyl bromide (expressed in terms of ppm of n-propyl bromide). Three control trials using only phosphate buffered saline were also measured. The corrected, average optical density of each of the experimental assays was then compared to the corrected, average optical density of the control (PBS only) assays. The comparison is expressed as the percentage of MTS reduction relative to the normalized absorbance of control samples.
smiles,measurement,setting,value
"CCCBr [n-propyl bromide, 1-bromopropane]","Absorbance of cell-reduced MTS at 490 nm, Trial 2",5 ppm,0.3 optical density
same,"Absorbance of cell-reduced MTS at 490 nm, Trial 3",5 ppm,0.4 optical density
same,Average absorbance of cell-reduced MTS at 490 nm,5 ppm,0.3 optical density
same,Corrected average absorbance of cell-reduced MTS at 490 nm,5 ppm,0.1 optical density
same,% of control (MTS reduction relative to PBS only control),12.5 ppm,100%
same,"Absorbance of cell-reduced MTS at 490 nm, Trial 1",12.5 ppm,0.4 optical density
same,"Absorbance of cell-reduced MTS at 490 nm, Trial 2",12.5 ppm,0.4 optical density
same,"Absorbance of cell-reduced MTS at 490 nm, Trial 3",12.5 ppm,0.1 optical density
same,Average absorbance of cell-reduced MTS at 490 nm,12.5 ppm,0.3 optical density
same,Corrected average absorbance of cell-reduced MTS at 490 nm,12.5 ppm,0.1 optical density
same,% of control (MTS reduction relative to PBS only control),25 ppm,100%
same,"Absorbance of cell-reduced MTS at 490 nm, Trial 1",25 ppm,0.3 optical density
same,"Absorbance of cell-reduced MTS at 490 nm, Trial 2",25 ppm,0.4 optical density
same,"Absorbance of cell-reduced MTS at 490 nm, Trial 3",25 ppm,0.2 optical density
same,Average absorbance of cell-reduced MTS at 490 nm,25 ppm,0.3 optical density
same,Corrected average absorbance of cell-reduced MTS at 490 nm,25 ppm,0.1 optical density
same,% of control (MTS reduction relative to PBS only control),50 ppm,100%
same,"Absorbance of cell-reduced MTS at 490 nm, Trial 1",50 ppm,0.2 optical density
same,"Absorbance of cell-reduced MTS at 490 nm, Trial 2",50 ppm,0.5 optical density
same,"Absorbance of cell-reduced MTS at 490 nm, Trial 3",50 ppm,0.1 optical density
same,Average absorbance of cell-reduced MTS at 490 nm,50 ppm,0.3 optical density
same,Corrected average absorbance of cell-reduced MTS at 490 nm,50 ppm,0.1 optical density
same,% of control (MTS reduction relative to PBS only control),100 ppm,400%
same,"Absorbance of cell-reduced MTS at 490 nm, Trial 1",100 ppm,0.4 optical density
same,"Absorbance of cell-reduced MTS at 490 nm, Trial 2",100 ppm,0.6 optical density
same,"Absorbance of cell-reduced MTS at 490 nm, Trial 3",100 ppm,0.7 optical density
same,Average absorbance of cell-reduced MTS at 490 nm,100 ppm,0.6 optical density
same,Corrected average absorbance of cell-reduced MTS at 490 nm,100 ppm,0.4 optical density
same,% of control (MTS reduction relative to PBS only control),200 ppm,600%
same,"Absorbance of cell-reduced MTS at 490 nm, Trial 1",200 ppm,0.8 optical density
same,"Absorbance of cell-reduced MTS at 490 nm, Trial 2",200 ppm,0.9 optical density
same,"Absorbance of cell-reduced MTS at 490 nm, Trial 3",200 ppm,0.7 optical density
same,Average absorbance of cell-reduced MTS at 490 nm,200 ppm,0.8 optical density
same,Corrected average absorbance of cell-reduced MTS at 490 nm,200 ppm,0.6 optical density
same,% of control (MTS reduction relative to PBS only control),600 ppm,900%
same,"Absorbance of cell-reduced MTS at 490 nm, Trial 1",600 ppm,1.2 optical density
same,"Absorbance of cell-reduced MTS at 490 nm, Trial 2",600 ppm,1.1 optical density
same,"Absorbance of cell-reduced MTS at 490 nm, Trial 3",600 ppm,0.9 optical density
same,Average absorbance of cell-reduced MTS at 490 nm,600 ppm,1.1 optical density
same,Corrected average absorbance of cell-reduced MTS at 490 nm,600 ppm,0.9 optical density
same,"cell toxicity (MTS assay, Table II)",at concentrations of 50 ppm or less,does not result in significant cell toxicity
